ChEMBL document CHEMBL1201862, “PubChem BioAssay data set” (2004)
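Compound exposure: 48 hours, 5 concentrations, 96-well plates. The concentration for 50% growth inhibition is given as GI50.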 Active and inactive are the calls of the source. Rule as the data show it: active = GI50 up to about 1.1 µM and inactive = higher.

Legend:
Assay in all cases: inhibition of tumour cell growth, NCI panel, 48 h
NCI-H460 = test system: NCI-H460
HT-29 = test system: HT-29
SK-MEL-2 = test system: SK-MEL-2
K562 = test system: K562
OVCAR-5 = test system: OVCAR-5
CCRF-CEM = test system: CCRF-CEM
Hs-578T = test system: Hs-578T
COLO 205 = test system: COLO 205
SR = test system: SR
OVCAR-8 = test system: OVCAR-8
SF-268 = test system: SF-268
MDA-MB-231 = test system: MDA-MB-231
MCF7 = test system: MCF7
SNB-75 = test system: SNB-75
RXF 393 = test system: RXF 393
KM12 = test system: KM12
T47D = test system: T47D
M14 = test system: M14
NCI-H522 = test system: NCI-H522
TK-10 = test system: TK-10
RPMI-8226 = test system: RPMI-8226
HCT-15 = test system: HCT-15
NCI-H23 = test system: NCI-H23
SF-539 = test system: SF-539
SNB-19 = test system: SNB-19
HCT-116 = test system: HCT-116
EKVX = test system: EKVX
MDA-MB-435 = test system: MDA-MB-435
Malme-3M = test system: Malme-3M
786-0 = test system: 786-0
NCI/ADR-RES = test system: NCI/ADR-RES
HL-60 = test system: HL-60
SK-MEL-28 = test system: SK-MEL-28
UO-31 = test system: UO-31
SK-MEL-5 = test system: SK-MEL-5
MDA-N = test system: MDA-N
SW-620 = test system: SW-620
SN12C = test system: SN12C
IGROV-1 = test system: IGROV-1
PC-3 = test system: PC-3
CAKI-1 = test system: CAKI-1
OVCAR-3 = test system: OVCAR-3
UACC-62 = test system: UACC-62
LOX IMVI = test system: LOX IMVI
A549 = test system: A549
MOLT-4 = test system: MOLT-4
DU-145 = test system: DU-145
BT-549 = test system: BT-549
U-251 = test system: U-251
OVCAR-4 = test system: OVCAR-4
NCI-H226 = test system: NCI-H226
A498 = test system: A498
UACC-257 = test system: UACC-257
SK-OV-3 = test system: SK-OV-3
HCC 2998 = test system: HCC 2998
SF-295 = test system: SF-295
HOP-92 = test system: HOP-92
ACHN = test system: ACHN
HOP-62 = test system: HOP-62

## COC(=O)N/N=C(\c1ccccc1)c1ccc(OC)cc1
NCI-H460
  GI50: > 100 µM (inactive)
HT-29
  GI50: > 100 µM (inactive)
SK-MEL-2
  GI50: > 100 µM (inactive)
K562
  GI50: > 100 µM (inactive)
OVCAR-5
  GI50: > 100 µM (inactive)
CCRF-CEM
  GI50: > 100 µM (inactive)
Hs-578T
  GI50: > 100 µM (inactive)
COLO 205
  GI50: > 100 µM (inactive)
SR
  GI50: > 100 µM (inactive)
OVCAR-8
  GI50: > 100 µM (inactive)
SF-268
  GI50: > 100 µM (inactive)
MDA-MB-231
  GI50: > 100 µM (inactive)
MCF7
  GI50: > 100 µM (inactive)
SNB-75
  GI50: 78.7 µM (inactive)
RXF 393
  GI50: > 100 µM (inactive)
KM12
  GI50: > 100 µM (inactive)
T47D
  GI50: > 100 µM (inactive)
M14
  GI50: > 100 µM (inactive)
NCI-H522
  GI50: > 100 µM (inactive)
TK-10
  GI50: > 100 µM (inactive)
RPMI-8226
  GI50: > 100 µM (inactive)
HCT-15
  GI50: > 100 µM
NCI-H23
  GI50: > 100 µM (inactive)
SF-539
  GI50: > 100 µM (inactive)
SNB-19
  GI50: > 100 µM (inactive)
HCT-116
  GI50: > 100 µM (inactive)
EKVX
  GI50: > 100 µM (inactive)
MDA-MB-435
  GI50: 76.7 µM (inactive)
Malme-3M
  GI50: > 100 µM (inactive)
786-0
  GI50: > 100 µM (inactive)
NCI/ADR-RES
  GI50: > 100 µM (inactive)
HL-60
  GI50: > 100 µM (inactive)
SK-MEL-28
  GI50: > 100 µM (inactive)
UO-31
  GI50: 35.1 µM (inactive)
SK-MEL-5
  GI50: > 100 µM (inactive)
MDA-N
  GI50: > 100 µM (inactive)
SW-620
  GI50: > 100 µM (inactive)
SN12C
  GI50: > 100 µM (inactive)
IGROV-1
  GI50: 59.6 µM (inactive)
PC-3
  GI50: > 100 µM (inactive)
CAKI-1
  GI50: > 100 µM (inactive)
OVCAR-3
  GI50: > 100 µM (inactive)
UACC-62
  GI50: > 100 µM (inactive)
LOX IMVI
  GI50: 35.3 µM (inactive)
A549
  GI50: > 100 µM (inactive)
MOLT-4
  GI50: > 100 µM (inactive)
DU-145
  GI50: > 100 µM (inactive)
BT-549
  GI50: > 100 µM (inactive)
U-251
  GI50: > 100 µM (inactive)
OVCAR-4
  GI50: > 100 µM (inactive)
NCI-H226
  GI50: > 100 µM (inactive)
A498
  GI50: > 100 µM (inactive)
UACC-257
  GI50: > 100 µM (inactive)
SK-OV-3
  GI50: > 100 µM (inactive)
HCC 2998
  GI50: > 100 µM (inactive)

## Fc1cccc(Cl)c1/C=N\N=C1c2ccccc2-c2ccccc21
NCI-H460
  GI50: 79.8 µM (inactive)
HT-29
  GI50: 58.9 µM (inactive)
SK-MEL-2
  GI50: > 100 µM (inactive)
SF-295
  GI50: 61.7 µM (inactive)
K562
  GI50: > 100 µM (inactive)
OVCAR-5
  GI50: > 100 µM (inactive)
HOP-92
  GI50: > 100 µM (inactive)
CCRF-CEM
  GI50: > 100 µM (inactive)
Hs-578T
  GI50: 34.3 µM (inactive)
COLO 205
  GI50: > 100 µM (inactive)
SR
  GI50: 51.2 µM (inactive)
OVCAR-8
  GI50: 79.8 µM (inactive)
SF-268
  GI50: > 100 µM (inactive)
MDA-MB-231
  GI50: 90.4 µM (inactive)
MCF7
  GI50: 11.8 µM (inactive)
RXF 393
  GI50: > 100 µM (inactive)
KM12
  GI50: 40.7 µM (inactive)
T47D
  GI50: 30 µM (inactive)
M14
  GI50: > 100 µM (inactive)
NCI-H522
  GI50: > 100 µM (inactive)
TK-10
  GI50: > 100 µM (inactive)
RPMI-8226
  GI50: 33.9 µM (inactive)
HCT-15
  GI50: 75.2 µM
NCI-H23
  GI50: > 100 µM (inactive)
SF-539
  GI50: 49.4 µM (inactive)
SNB-19
  GI50: 98.9 µM (inactive)
HCT-116
  GI50: > 100 µM (inactive)
EKVX
  GI50: > 100 µM (inactive)
MDA-MB-435
  GI50: 36 µM (inactive)
Malme-3M
  GI50: 76.7 µM (inactive)
786-0
  GI50: > 100 µM (inactive)
NCI/ADR-RES
  GI50: > 100 µM (inactive)
HL-60
  GI50: > 100 µM (inactive)
SK-MEL-28
  GI50: 76 µM (inactive)
UO-31
  GI50: > 100 µM (inactive)
SK-MEL-5
  GI50: > 100 µM (inactive)
MDA-N
  GI50: 48.3 µM (inactive)
SW-620
  GI50: 73.8 µM (inactive)
SN12C
  GI50: > 100 µM (inactive)
IGROV-1
  GI50: 64.3 µM (inactive)
ACHN
  GI50: 95.3 µM (inactive)
PC-3
  GI50: 97.9 µM (inactive)
CAKI-1
  GI50: > 100 µM (inactive)
OVCAR-3
  GI50: 69.2 µM (inactive)
UACC-62
  GI50: > 100 µM (inactive)
LOX IMVI
  GI50: > 100 µM (inactive)
A549
  GI50: 70 µM (inactive)
MOLT-4
  GI50: 66.4 µM (inactive)
DU-145
  GI50: > 100 µM (inactive)
BT-549
  GI50: > 100 µM (inactive)
U-251
  GI50: 78.9 µM (inactive)
OVCAR-4
  GI50: 49.4 µM (inactive)
NCI-H226
  GI50: > 100 µM (inactive)
HOP-62
  GI50: 65.6 µM (inactive)
A498
  GI50: > 100 µM (inactive)
UACC-257
  GI50: > 100 µM (inactive)
SK-OV-3
  GI50: > 100 µM (inactive)
